Read-outs that look alike come from different tables or passages of the source.
Legend:
[1] = system: DRG ion channels K+; experiment: Potassium currents in DRG neurons, patch clamp; type: cell-based, rodent; conditions: Table 2
Experimental: (§1) All the procedures related to animal handling were in strict accordance with NIH guidelines and IACUC approved protocols. Briefly, the spine was taken out and split into two halves from the middle line after sacrificing the mice by decapitation. […] The DRG neurons were minced with fine scissors and incubated at 35° C. for 50 min. […] Finally the cells were dispersed onto poly-1-ornithine-coated cover slips and maintained in a modified Krebs solution with streptomycin sulfate (0.2 mM), Penicillin G Sodium (0.3 mM), and Gentamycin (0.1 mM) at 21° C. […] All experiments were performed at room temperature (around 21° C.). Whole-cell currents were recorded using a MultiClamp 700B amplifier and analyzed offline with pCLAMP10.4 software (Molecular Devices, LLC, Sunnyvale Calif., USA). […] The internal solution was composed (in mM) of 125 CsCl, 10 HEPES (acid), 10 EGTA (ethylene glycol tetraacetic acid), 1 CaCl2, 1 MgCl2, 4 MgATP and 0.3 […] 7.3-7.4 adjusted with CsOH; osmolality verified as 295 mOsm/kg). Since the sodium ions were absent in the external solution, tetrodoctoxin was not needed. […] To record sodium (Na^+) currents in DRG neurons, the external solution used the modified Krebs solution specified above. […] To record potassium currents in DRG neurons, the external solution used the modified Kreb's solution specified above. The internal solution was composed (in mM) of 65 KCl, 80 KF, 5 KOH, 10 EGTA, 2 MgATP (pH 7.3-7.4 adjusted with KOH). Recording electrodes were fabricated using a P-87 puller (Sutter Instrument Co., Novato, Calif., USA). […] All reagents were purchased from Sigma unless specified otherwise. […] Selectivity among the three subtypes of the Cav3 T-type channel, and off-target effects on other key ion channels of the representative example compounds are presented in Table 2. Sodium and potassium channels in the rodent DRG neurons were recorded and tested as described above. The human ether-a-go-go-related gene (hERG) encodes the rapidly activating potassium channel (IKr) contributing to the repolarization of the cardiac action potential. The blockade of hERG can lead to a QT prolongation in the electrocardiogram known as long QT syndrome (Sanguinetti, et al., 1995). Therefore the representative example compounds in Table 2 were tested against the hERG channel.

[2] = system: DRG ion channels Na+; experiment: Sodium currents in DRG neurons, patch clamp; type: cell-based, rodent; conditions: Table 2
Experimental: as §1

[3] = target: T1, hERG channel (Homo sapiens, UniProt Q12809); experiment: hERG patch clamp in hERG-expressing CHO cells; type: cell-based
T1 construct: expressed in transfected cells; host or cells: CHO
Experimental: Sodium and potassium channels in the rodent DRG neurons were recorded and tested as described above. The human ether-a-go-go-related gene (hERG) encodes the rapidly activating potassium channel (IKr) contributing to the repolarization of the cardiac action potential. […] Therefore the representative example compounds in Table 2 were tested against the hERG channel.
Whole-cell patch clamp electrophysiology is employed to test compounds and a positive control compound. Extracellular Ringer's solution contains (in mM): NaCl (130), KCl (5), CaCl2 (1), Glucose (10), HEPES-Na (10) (pH 7.4 adjusted with HCl). Internal pipette solution contains (in mM): KF (120), CaCl2 (1), MgCl2 (1), KCl (10), EGTA (11), HEPES (10), KOH (11) (pH 7.2 adjusted with KOH). The hERG potassium currents are recorded under a holding potential of −80 mV and then depolarized to 40 mV for 2.5 seconds to activate the hERG channel. The peak tail currents are induced by a repolarizing pulse to −50 mV for 4 seconds. A 250 millisecond prepulse to −50 mV is applied for leak subtraction. This voltage-clamp pulse protocol is performed continuously during the experiment every 20 seconds allowing recovery from inactivation. For IC50 determination, each concentration is applied for 2 mins to reach a steady-state inhibitory level prior to the next higher concentrations tested. Each concentration is tested at 2-3 times (n=2-3).

[4] = target: T2, Cav3.3 (Homo sapiens, UniProt Q9P0X4); experiment: Whole-cell patch clamp of T-type Cav3.3 channel expressed in HEK293 cells; type: cell-based; conditions: Table 2
T2 construct: expressed in transfected cells; host or cells: HEK-293, tetracycline inducible expression system (Invitrogen)
Experimental: Cav3.1, Cav3.2 or Cav3.3 channels were expressed in human embryonic kidney (HEK)-293 cells using a tetracycline inducible expression system (Invitrogen). Cells were maintained in 25 cm^2 tissue culture flasks at 37° C., 5% CO2, and 100% relative humidity in D-MEM/F12 (Dulbecco's Modified Eagle Medium/Nutrient Mixture F-12; Gibco) supplemented with fetal bovine serum (FBS, 10% v/v), sodium pyruvate (0.5 mM, Gibco), penicillin-streptomycin (100 U/mL, 100 μg/mL) and Geneticin® Selective antibiotic (G418; 0.5 mg/mL). Cells were detached from the flask base using a non-enzymatic cell dissociation solution (Cellstripper, Corning), removed and re-seeded on to poly-D-lysine coated glass coverslips in 35 mm dishes.
Whole-cell voltage clamp recordings were performed on rat or mouse DRG neurons within 2 days after acutely dissociation or cultured HEK293 cells expressing T-type channels (encoded by Cav3.1, Cav3.2 or Cav3.3 channels). All experiments were performed at room temperature (around 21° C.). Whole-cell currents were recorded using a MultiClamp 700B amplifier and analyzed offline with pCLAMP10.4 software (Molecular Devices, LLC, Sunnyvale Calif., USA). […] Since the sodium ions were absent in the external solution, tetrodoctoxin was not needed. Calcium currents were recorded at a holding potential of −100 mV and then depolarized to −30 mV for 100 ms to activate either Cav3.1, Cav3.2, or Cav3.3 expressed in HEK cells. An interpulse interval of 10 seconds allowed the channel recovery from inactivation, and achieved stable current recordings. To record sodium (Na^+) currents in DRG neurons, the external solution used the modified Krebs solution specified above. The internal solution was composed (in mM) of 120 CsF, 10 HEPES, 11 EGTA, 1 CaCl2, 1 MgCl2, 10 TEA-Cl, 4 MgATP and 0.3 MgGTP (pH 7.3-7.4 adjusted with CsOH). […] To record potassium currents in DRG neurons, the external solution used the modified Kreb's solution specified above. The internal solution was composed (in mM) of 65 KCl, 80 KF, 5 KOH, 10 EGTA, 2 MgATP (pH 7.3-7.4 adjusted with KOH). Recording electrodes were fabricated using a P-87 puller (Sutter Instrument Co., Novato, Calif., USA). The tip of resistance was 3-4 MQ in bath and the series resistance was less than 10 MΩ after whole cell configuration. All reagents were purchased from Sigma unless specified otherwise. Test compounds were usually applied via a rapid solution exchange system with 8 fine polyplastic tubings (100 μm, OD) glued in a holder in parallel and located closely to the recorded cells. The current responses were normalized to the control, percent inhibition was calculated and sigmoidal dose-response curves were generated using XLFit (IDBS, Surrey, UK) or Prism (GraphPad Software, La Jolla, Calif., US) to calculate IC50 values and Hill slopes using the following equation Y=Bottom+(Top−Bottom)/(1+10^((Log EC50−X)[…])).

T1 sequence (Q12809 whole entry): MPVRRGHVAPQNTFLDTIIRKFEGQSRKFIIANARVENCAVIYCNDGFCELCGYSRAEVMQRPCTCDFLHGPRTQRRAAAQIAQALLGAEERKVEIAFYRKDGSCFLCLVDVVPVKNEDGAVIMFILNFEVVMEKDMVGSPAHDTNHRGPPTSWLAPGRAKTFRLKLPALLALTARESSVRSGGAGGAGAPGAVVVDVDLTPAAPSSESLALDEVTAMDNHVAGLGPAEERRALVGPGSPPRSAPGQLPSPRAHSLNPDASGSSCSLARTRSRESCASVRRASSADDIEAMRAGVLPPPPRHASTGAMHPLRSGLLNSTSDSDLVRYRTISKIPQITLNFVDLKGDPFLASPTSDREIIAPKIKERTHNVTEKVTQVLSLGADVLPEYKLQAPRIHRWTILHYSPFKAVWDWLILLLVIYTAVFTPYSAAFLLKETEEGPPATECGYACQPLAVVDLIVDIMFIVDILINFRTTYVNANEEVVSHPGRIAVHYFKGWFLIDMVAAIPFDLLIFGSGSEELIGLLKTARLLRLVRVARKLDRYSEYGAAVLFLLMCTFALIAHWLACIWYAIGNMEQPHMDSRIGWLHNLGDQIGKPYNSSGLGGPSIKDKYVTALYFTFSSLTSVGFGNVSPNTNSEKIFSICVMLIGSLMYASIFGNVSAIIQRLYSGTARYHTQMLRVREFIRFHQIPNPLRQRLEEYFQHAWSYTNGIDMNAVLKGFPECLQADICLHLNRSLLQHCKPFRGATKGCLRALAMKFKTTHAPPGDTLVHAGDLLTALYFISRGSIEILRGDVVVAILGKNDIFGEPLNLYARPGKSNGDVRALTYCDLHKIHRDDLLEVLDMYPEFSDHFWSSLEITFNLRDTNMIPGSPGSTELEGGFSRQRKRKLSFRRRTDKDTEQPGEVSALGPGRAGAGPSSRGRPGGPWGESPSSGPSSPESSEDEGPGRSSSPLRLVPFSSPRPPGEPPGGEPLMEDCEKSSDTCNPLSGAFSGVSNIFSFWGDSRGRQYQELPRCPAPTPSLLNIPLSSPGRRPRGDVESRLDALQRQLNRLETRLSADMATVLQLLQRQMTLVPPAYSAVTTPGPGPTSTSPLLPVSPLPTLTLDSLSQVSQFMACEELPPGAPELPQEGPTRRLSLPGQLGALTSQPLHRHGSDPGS
T2 sequence (Q9P0X4 whole entry, species assumed): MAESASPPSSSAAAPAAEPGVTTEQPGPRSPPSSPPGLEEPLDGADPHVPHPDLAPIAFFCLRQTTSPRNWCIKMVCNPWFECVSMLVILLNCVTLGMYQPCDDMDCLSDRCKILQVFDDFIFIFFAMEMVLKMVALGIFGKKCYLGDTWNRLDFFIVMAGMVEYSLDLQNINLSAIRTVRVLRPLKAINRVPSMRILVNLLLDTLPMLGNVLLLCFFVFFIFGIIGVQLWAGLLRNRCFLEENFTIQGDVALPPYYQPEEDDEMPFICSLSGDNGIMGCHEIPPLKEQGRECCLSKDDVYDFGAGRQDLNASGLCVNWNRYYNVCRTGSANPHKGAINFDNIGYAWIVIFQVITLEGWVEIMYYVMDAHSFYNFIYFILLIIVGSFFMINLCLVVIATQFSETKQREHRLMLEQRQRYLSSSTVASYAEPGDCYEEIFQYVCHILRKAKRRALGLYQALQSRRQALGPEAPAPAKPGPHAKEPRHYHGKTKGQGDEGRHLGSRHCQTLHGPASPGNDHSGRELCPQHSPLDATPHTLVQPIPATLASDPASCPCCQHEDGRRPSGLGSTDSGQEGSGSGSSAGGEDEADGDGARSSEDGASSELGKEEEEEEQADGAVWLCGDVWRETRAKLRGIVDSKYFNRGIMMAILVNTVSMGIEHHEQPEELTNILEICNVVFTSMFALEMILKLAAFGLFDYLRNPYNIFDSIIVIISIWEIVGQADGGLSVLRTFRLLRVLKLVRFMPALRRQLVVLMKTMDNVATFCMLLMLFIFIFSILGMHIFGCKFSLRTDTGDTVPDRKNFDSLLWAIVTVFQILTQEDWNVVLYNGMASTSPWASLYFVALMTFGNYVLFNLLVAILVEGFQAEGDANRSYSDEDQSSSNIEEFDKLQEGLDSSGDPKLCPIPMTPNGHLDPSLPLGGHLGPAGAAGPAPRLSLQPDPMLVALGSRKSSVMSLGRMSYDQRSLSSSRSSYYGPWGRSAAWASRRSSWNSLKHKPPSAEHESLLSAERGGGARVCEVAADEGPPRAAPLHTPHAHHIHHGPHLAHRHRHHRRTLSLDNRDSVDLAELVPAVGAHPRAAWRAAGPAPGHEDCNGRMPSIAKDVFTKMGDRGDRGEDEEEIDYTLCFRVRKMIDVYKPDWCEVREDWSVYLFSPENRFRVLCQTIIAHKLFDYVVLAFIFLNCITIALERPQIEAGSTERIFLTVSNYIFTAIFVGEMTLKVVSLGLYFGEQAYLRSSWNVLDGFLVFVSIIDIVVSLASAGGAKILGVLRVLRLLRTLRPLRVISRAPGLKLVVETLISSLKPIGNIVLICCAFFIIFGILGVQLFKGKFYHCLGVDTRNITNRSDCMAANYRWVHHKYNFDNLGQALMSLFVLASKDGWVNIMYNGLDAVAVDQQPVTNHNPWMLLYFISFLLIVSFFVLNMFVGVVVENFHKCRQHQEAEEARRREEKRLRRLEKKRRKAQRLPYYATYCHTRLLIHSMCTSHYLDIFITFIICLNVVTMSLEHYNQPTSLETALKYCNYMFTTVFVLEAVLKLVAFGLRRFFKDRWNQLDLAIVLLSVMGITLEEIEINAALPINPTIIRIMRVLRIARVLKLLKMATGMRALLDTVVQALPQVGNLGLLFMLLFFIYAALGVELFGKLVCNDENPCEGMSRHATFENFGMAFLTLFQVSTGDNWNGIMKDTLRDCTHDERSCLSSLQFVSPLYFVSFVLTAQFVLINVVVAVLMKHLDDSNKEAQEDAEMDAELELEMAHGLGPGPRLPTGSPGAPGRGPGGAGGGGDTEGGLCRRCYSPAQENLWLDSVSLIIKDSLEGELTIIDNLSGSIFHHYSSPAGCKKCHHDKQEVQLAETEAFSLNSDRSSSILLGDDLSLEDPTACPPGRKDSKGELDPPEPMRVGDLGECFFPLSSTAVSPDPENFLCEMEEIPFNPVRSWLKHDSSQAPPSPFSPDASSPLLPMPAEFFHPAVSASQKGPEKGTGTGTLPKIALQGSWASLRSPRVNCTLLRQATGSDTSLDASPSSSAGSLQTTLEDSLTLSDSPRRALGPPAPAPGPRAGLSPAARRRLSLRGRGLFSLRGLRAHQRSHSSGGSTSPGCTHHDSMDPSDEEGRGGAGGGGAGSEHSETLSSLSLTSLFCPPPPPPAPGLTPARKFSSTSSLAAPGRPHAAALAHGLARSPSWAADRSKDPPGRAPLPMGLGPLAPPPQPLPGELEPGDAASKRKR

Compound | IC50 [1] [µM] | IC50 [2] [µM] | inhibition at 1 µM ([3]; human, CHO cells expressing hERG, pH 7.4, 1 μM, values in brackets, read-out: hERG (%) inh. at 1 μM) [%] | IC50 [4] [µM] | IC50 [3] [µM] | IC50 ([3]; Table 2, read-out: hERG IC50) [µM] | hERG (%) inh. at 1 μM ([3]; 1 μM, values in brackets)
CC(C)(C)NC(=O)CN1CCC2(CC1)C[C@H]2NC(=O)c1cc(Cl)cc(Cl)c1 (single isomer, unassigned) [Example 57, (R)—N-(6-(2-(tert-Butylamino)-2-oxoethyl)-6-azaspiro[2.5]octan-1-yl)-3,5-dichlorobenzamide or (S)—N-(6-(2-(tert-Butylamino)-2-oxoethyl)-6-azaspiro[2.5]octan-1-yl)-3,5-dichlorobenzamide] | > 100 | 37.2 | 22 | 0.098 |  |  | 
CC(C)(C)NC(=O)CN1CCC2(CC1)CC2NC(=O)c1cc(F)cc(Cl)c1 (single isomer, unassigned) [Example 128, (S)—N-(6-(2-(tert-Butylamino)-2-oxoethyl)-6-azaspiro[2.5]octan-1-yl)-3-chloro-5-fluorobenzamide or (R)—N-(6-(2-(tert-Butylamino)-2-oxoethyl)-6-azaspiro[2.5]octan-1-yl)-3-chloro-5-fluorobenzamide] | > 100 | > 100 |  | 0.75 | 7 |  | 
CC(C)(C)NC(=O)CN1CCC2(CC1)C[C@H]2NC(=O)c1cc(F)cc(Cl)c1 (single isomer, unassigned) [Example 129, (R)—N-(6-(2-(tert-Butylamino)-2-oxoethyl)-6-azaspiro[2.5]octan-1-yl)-3-chloro-5-fluorobenzamide or (S)—N-(6-(2-(tert-Butylamino)-2-oxoethyl)-6-azaspiro[2.5]octan-1-yl)-3-chloro-5-fluorobenzamide] | > 100 | > 100 |  | 1.63 |  | 16 | 
CC(C)(C)NC(=O)CN1CCC2(CC1)C[C@H]2NC(=O)c1cc(F)cc(C(F)(F)F)c1 (single isomer, unassigned) [Example 130, (R)—N-(6-(2-(tert-Butylamino)-2-oxoethyl)-6-azaspiro[2.5]octan-1-yl)-3-fluoro-5-(trifluoromethyl)benzamide or (S)—N-(6-(2-(tert-Butylamino)-2-oxoethyl)-6-azaspiro[2.5]octan-1-yl)-3-fluoro-5-(trifluoromethyl)benzamide] | > 100 | > 100 |  | 0.28 |  | 8 | 
CC(C)(C)NC(=O)CN1CCC2(CC1)C[C@H]2C(=O)Nc1cc(C(F)(F)F)cc(C(F)(F)F)c1 (single isomer, unassigned) [Example 132, (R)—N-(3,5-Bis(trifluoromethyl)phenyl)-6-(2-(tert-butylamino)-2-oxoethyl)-6-azaspiro[2.5]octane-1-carboxamide or (S)—N-(3,5-Bis(trifluoromethyl)phenyl)-6-(2-(tert-butylamino)-2-oxoethyl)-6-azaspiro[2.5]octane-1-carboxamide] | > 100 | 14.3 |  | 7.61 |  |  | (9%)
CC(C)(C)NC(=O)CN1CCC2(CC1)C[C@H]2NC(=O)c1cc(C(F)(F)F)cc(C(F)(F)F)c1 (single isomer, unassigned) [Example 144, ((R)—N-(6-(2-(tert-butylamino)-2-oxoethyl)-6-azaspiro[2.5]octan-1-yl)-3,5-bis(trifluoromethyl)benzamide or (S)—N-(6-(2-(tert-butylamino)-2-oxoethyl)-6-azaspiro[2.5]octan-1-yl)-3,5-bis(trifluoromethyl)benzamide] | > 30 | 34.4 |  | 0.25 |  | 4.6 | 
CC(C)(C)NC(=O)CN1CCC2(CC1)C[C@H]2NC(=O)C12CC3CC(CC(C3)C1)C2 (single isomer, unassigned) [Example 145, N—((R)-6-(2-(tert-butylamino)-2-oxoethyl)-6-azaspiro[2.5]octan-1-yl)adamantane-1-carboxamide or N—((S)-6-(2-(tert-butylamino)-2-oxoethyl)-6-azaspiro[2.5]octan-1-yl)adamantane-1-carboxamide] | > 30 | > 30 |  | 0.31 |  | > 30 | 
CC(C)(C)CCN1CCC2(CC1)C[C@H]2NC(=O)c1cc(C(F)(F)F)cc(C(F)(F)F)c1 (single isomer, unassigned) [Example 146, (R)—N-(6-(3,3-dimethylbutyl)-6-azaspiro[2.5]octan-1-yl)-3,5-bis(trifluoromethyl)benzamide or (S)—N-(6-(3,3-dimethylbutyl)-6-azaspiro[2.5]octan-1-yl)-3,5-bis(trifluoromethyl)benzamide] | > 100 | 8.7 |  | 0.11 |  | 1.2 | 
CC(C)(C)CCN1CCC2(CC1)C[C@H]2NC(=O)c1cc(C(F)(F)F)ccc1Cl (single isomer, unassigned) [Example 147, (R)-2-Chloro-N-(6-(3,3-dimethylbutyl)-6-azaspiro[2.5]octan-1-yl)-5-(trifluoromethyl)benzamide or (S)-2-Chloro-N-(6-(3,3-dimethylbutyl)-6-azaspiro[2.5]octan-1-yl)-5-(trifluoromethyl)benzamide] | > 100 | 14.3 |  | 1.58 |  | 1.8 | 
CC(C)(C)NC(=O)CN1CCC2(CC1)CC2NC(=O)c1cc(F)cc(Cl)c1 (stereo not shown) [Example 17, N-(6-(2-(tert-Butylamino)-2-oxoethyl)-6-azaspiro[2.5]octan-1-yl)-3-chloro-5-fluorobenzamide] | > 100 | > 100 |  | 0.29 | 10.7 |  | 

From patent US10562857B2 (AFASCI, Inc., priority 2015, dated 2020)
